Data on 17 compounds can be found in ChEMBL document CHEMBL3991601, “The target landscape of clinical kinase drugs” (Science, 2017).

The target in test [1] is T1, Probable ATP-dependent RNA helicase DDX6 (Homo sapiens, UniProt P26196).
T1 sequence (P26196 whole entry): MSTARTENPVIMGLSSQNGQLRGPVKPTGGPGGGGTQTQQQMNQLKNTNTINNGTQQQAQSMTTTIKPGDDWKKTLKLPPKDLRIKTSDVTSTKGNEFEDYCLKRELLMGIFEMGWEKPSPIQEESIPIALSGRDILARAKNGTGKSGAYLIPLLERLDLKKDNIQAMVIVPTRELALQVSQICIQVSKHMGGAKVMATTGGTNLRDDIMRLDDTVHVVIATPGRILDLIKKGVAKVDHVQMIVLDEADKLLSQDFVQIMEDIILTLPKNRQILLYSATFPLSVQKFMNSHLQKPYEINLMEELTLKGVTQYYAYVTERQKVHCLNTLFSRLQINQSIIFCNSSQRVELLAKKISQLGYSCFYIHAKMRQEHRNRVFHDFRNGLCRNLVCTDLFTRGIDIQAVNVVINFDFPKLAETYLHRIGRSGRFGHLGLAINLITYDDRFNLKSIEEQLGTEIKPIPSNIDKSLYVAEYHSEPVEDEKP

Test [2] concerns the target Dual specificity tyrosine-phosphorylation-regulated kinase 1A (Homo sapiens, UniProt Q13627).
For test [3], the target named is Fibroblast growth factor receptor 1 (Homo sapiens, UniProt P11362).
Fibroblast growth factor receptor 1, sequence (P11362 whole entry): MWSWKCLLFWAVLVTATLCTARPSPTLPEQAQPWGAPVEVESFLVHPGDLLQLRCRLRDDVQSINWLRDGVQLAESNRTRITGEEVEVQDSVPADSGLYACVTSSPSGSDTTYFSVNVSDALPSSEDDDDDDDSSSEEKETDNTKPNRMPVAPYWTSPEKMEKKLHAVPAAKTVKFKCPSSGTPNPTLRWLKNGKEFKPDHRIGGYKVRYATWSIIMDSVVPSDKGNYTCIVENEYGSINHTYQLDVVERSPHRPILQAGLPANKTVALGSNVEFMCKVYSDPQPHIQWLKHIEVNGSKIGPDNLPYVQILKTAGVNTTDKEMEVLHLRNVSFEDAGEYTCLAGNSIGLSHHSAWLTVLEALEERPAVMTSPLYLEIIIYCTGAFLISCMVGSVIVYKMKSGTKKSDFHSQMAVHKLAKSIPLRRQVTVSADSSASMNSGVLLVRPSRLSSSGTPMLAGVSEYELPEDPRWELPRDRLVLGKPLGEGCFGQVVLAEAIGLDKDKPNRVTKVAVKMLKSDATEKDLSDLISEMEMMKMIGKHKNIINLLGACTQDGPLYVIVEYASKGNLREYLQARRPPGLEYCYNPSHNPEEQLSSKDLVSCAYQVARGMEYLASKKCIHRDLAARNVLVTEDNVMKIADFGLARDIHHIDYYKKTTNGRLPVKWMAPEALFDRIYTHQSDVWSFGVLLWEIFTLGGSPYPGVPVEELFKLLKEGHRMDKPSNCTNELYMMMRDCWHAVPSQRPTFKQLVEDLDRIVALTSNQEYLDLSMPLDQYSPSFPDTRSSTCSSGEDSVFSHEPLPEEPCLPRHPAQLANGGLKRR
Test [4] has as its target T2, NUAK family SNF1-like kinase 2 (Homo sapiens, UniProt Q9H093).
T2 sequence (Q9H093 whole entry): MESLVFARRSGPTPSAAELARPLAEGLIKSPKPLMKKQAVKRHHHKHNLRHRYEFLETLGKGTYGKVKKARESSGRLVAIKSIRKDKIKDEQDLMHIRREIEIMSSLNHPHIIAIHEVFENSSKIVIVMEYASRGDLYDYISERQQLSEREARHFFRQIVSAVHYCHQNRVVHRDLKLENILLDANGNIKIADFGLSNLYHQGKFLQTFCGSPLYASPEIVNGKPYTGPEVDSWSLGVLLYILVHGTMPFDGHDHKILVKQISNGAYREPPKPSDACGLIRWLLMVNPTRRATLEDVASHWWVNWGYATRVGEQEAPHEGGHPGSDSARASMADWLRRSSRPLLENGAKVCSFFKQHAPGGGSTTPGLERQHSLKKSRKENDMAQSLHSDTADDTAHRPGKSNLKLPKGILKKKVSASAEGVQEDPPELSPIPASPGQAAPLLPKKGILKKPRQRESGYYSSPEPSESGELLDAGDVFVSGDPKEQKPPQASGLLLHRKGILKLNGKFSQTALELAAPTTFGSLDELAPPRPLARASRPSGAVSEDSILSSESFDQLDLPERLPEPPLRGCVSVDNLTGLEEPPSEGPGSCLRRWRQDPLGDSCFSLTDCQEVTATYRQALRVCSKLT

Test [5] addresses cAMP-dependent protein kinase type II-alpha regulatory subunit (Homo sapiens, UniProt P13861).
For test [6], the target named is T3, Exosome RNA helicase MTR4 (Homo sapiens, UniProt P42285).
T3 sequence (P42285 whole entry): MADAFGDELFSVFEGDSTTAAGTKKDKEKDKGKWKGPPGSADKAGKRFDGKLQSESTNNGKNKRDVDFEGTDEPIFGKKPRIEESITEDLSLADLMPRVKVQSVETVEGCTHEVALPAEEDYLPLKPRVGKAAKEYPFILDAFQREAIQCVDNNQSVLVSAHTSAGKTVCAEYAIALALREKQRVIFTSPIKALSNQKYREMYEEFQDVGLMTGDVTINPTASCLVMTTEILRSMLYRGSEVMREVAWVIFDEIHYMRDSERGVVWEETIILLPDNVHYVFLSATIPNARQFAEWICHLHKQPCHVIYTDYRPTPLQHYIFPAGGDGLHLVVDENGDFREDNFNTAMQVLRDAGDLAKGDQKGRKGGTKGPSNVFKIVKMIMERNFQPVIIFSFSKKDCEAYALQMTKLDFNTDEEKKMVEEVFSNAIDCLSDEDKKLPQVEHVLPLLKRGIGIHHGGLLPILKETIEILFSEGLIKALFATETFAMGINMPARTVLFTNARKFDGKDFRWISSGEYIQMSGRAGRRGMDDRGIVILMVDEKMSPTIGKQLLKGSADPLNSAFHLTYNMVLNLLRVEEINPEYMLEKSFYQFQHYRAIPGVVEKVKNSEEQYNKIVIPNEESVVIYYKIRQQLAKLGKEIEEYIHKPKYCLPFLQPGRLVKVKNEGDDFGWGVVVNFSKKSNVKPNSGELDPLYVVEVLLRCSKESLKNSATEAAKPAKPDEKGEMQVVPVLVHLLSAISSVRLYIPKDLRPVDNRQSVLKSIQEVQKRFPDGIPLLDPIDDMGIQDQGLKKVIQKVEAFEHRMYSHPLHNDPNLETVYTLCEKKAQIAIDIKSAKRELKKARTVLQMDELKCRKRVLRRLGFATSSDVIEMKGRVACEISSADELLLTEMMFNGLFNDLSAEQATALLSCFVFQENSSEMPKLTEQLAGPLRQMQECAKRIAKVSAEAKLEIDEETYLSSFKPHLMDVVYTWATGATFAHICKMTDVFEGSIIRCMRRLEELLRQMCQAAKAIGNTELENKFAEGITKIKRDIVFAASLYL

A word on the Kd: it is the free concentration of one partner at which half of the binding sites on the other are occupied at equilibrium, for simple one-to-one binding.

Structures can show the parent of a compound that is named as a salt. The source made the active and inactive calls.
Note: in the data inactive means no Kd found up to 30 µM.

cAMP-dependent protein kinase type II-alpha regulatory subunit, sequence (P13861 whole entry): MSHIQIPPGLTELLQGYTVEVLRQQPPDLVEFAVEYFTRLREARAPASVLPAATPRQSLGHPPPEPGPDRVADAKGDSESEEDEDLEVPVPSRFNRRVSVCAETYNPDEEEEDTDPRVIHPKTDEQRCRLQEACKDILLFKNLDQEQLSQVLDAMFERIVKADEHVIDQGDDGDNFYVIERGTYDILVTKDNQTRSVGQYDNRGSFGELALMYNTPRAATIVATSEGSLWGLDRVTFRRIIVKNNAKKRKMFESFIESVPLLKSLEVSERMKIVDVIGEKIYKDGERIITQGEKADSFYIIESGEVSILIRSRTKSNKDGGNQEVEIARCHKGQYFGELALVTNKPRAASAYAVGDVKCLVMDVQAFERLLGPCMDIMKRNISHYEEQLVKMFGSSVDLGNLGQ

For the compound `CCS(=O)(=O)N1CCN(c2ccc(Nc3ncc(C(N)=O)c(NC4CC4)n3)cc2)CC1` [Cerdulatinib Hydrochloride], the Kd in test [1], in test [2], in test [3], in test [4], in test [5] and in test [6] was > 30 µM (inactive) each time.

Consider `O=C(Nc1nc2cccc(-c3ccc(CN4CCS(=O)(=O)CC4)cc3)n2n1)C1CC1` [FILGOTINIB], for which the Kd in test [1], in test [2], in test [3], in test [4], in test [5] and in test [6] was > 30 µM (inactive) throughout.

As to `Cc1cccc(-c2nn3c(c2-c2ccnc4ccc(C(N)=O)cc24)CCC3)n1` [GALUNISERTIB], the Kd in test [1], in test [2], in test [3], in test [4], in test [5] and in test [6] was > 30 µM (inactive) in each case.

With `COc1ccc(S(=O)(=O)N(C(C)=O)c2ccccc2/C=C/c2cc[n+]([O-])cc2)cc1` [HMN-214], the Kd in test [1], in test [2], in test [3], in test [4], in test [5] and in test [6] was > 30 µM (inactive) in each case.

Turning to `O=C(Nc1cc(C(F)(F)F)cc(C(F)(F)F)c1)c1cc(Cl)ccc1O` [IMD-0354], the Kd in test [1], in test [2], in test [3], in test [4], in test [5] and in test [6] was > 30 µM (inactive) throughout.

On to `CNC(=O)c1cccc2cc(Oc3ccnc4cc(OCC5(N)CC5)c(OC)cc34)ccc12` [LUCITANIB], for which the Kd in test [1], in test [2], in test [3], in test [4], in test [5] and in test [6] was > 30 µM (inactive) throughout.

Turning to `CNC(=O)c1nn(C)c2c1C(C)(C)Cc1cnc(Nc3ccc(N4CCN(C)CC4)cc3)nc1-2` [MILCICLIB], the Kd in test [1] is > 30 µM (inactive); in test [2], 0.105 µM (active); in test [3], 1.42 µM (active); in test [4], > 30 µM (inactive); in test [5], > 30 µM (inactive); in test [6], > 30 µM (inactive).

For the compound `NC1(c2ccc(-c3nc4ccn5c(=O)[nH]nc5c4cc3-c3ccccc3)cc2)CCC1` [MK-2206], the Kd in test [1], in test [2], in test [3], in test [4], in test [5] and in test [6] was > 30 µM (inactive) each time.

Take `CN(C[C@@H]1COCCO1)S(=O)(=O)Nc1ccc2ccc3ncc(-c4cnn(C)c4)cc3c(=O)c2c1` [MK-2461]: the Kd in test [1], in test [2], in test [3], in test [4], in test [5] and in test [6] was > 30 µM (inactive) in each case.

Turning to `Cn1cc(-c2cnc3ccc4ccc(CS(=O)(=O)NCc5ccccn5)cc4c(=O)c3c2)cn1` [MK-8033], the Kd in test [1], in test [2], in test [3], in test [4], in test [5] and in test [6] was > 30 µM (inactive) each time.

Regarding `FC(F)(F)c1ccc(/C=C/c2nc(COc3ccc(CCCCn4ccnn4)cc3)co2)cc1` [MUBRITINIB], the Kd in test [1], in test [2], in test [3], in test [4], in test [5] and in test [6] was > 30 µM (inactive) throughout.

Consider `COc1ncc(-c2ccc3nccc(-c4ccnnc4)c3c2)cc1NS(=O)(=O)c1ccc(F)cc1F` [OMIPALISIB], for which the Kd in test [1], in test [2], in test [3], in test [4], in test [5] and in test [6] was > 30 µM (inactive) in each case.

As for `CCOc1cc2ncc(C#N)c(Nc3ccc(F)c(Cl)c3)c2cc1NC(=O)/C=C/CN(C)C` [PELITINIB], the Kd in test [1], in test [2], in test [3], in test [4], in test [5] and in test [6] was > 30 µM (inactive) each time.

Regarding `Cc1nc(Nc2n[nH]c3c2CN(C(=O)N[C@H](CN(C)C)c2ccccc2)C3(C)C)c2sccc2n1` [PF-03758309], the Kd in test [1] was > 30 µM (inactive); in test [2], > 30 µM (inactive); in test [3], 0.208 µM (active); in test [4], > 30 µM (inactive); in test [5], > 30 µM (inactive); in test [6] it was > 30 µM (inactive).

Turning to `Cc1cnc(NC(=O)Nc2cc(Br)c(C)cc2OC[C@@H]2CNCCO2)cn1` [RABUSERTIB], the Kd in test [1], in test [2], in test [3], in test [4], in test [5] and in test [6] was > 30 µM (inactive) each time.

On to `CO[C@H]1C[C@@H]2CC[C@@H](C)[C@@](O)(O2)C(=O)C(=O)N2CCCC[C@H]2C(=O)O[C@H]([C@H](C)C[C@@H]2CC[C@@H](OP(C)(C)=O)[C@H](OC)C2)CC(=O)[C@H](C)/C=C(\C)[C@@H](O)[C@@H](OC)C(=O)[C@H](C)C[C@H](C)/C=C/C=C/C=C/1C` [RIDAFOROLIMUS], for which the Kd in test [1], in test [2], in test [3], in test [4], in test [5] and in test [6] was > 30 µM (inactive) each time.

With `N#CC1(c2ccc(NC(=O)c3cccnc3NCc3ccncc3)cc2)CCCC1` [RIVOCERANIB], the Kd in test [1], in test [2], in test [3], in test [4], in test [5] and in test [6] was > 30 µM (inactive) throughout.
